{"source": "patent US5011824A", "about": "“Rectal motilin preparation” (Kyowa Hakko Kogyo Co., Ltd., priority 1988, dated 1991)", "assay": "Intravenous safety of motilin in rats", "format": "in vivo", "settings": "10 mg/kg intravenously", "excerpt": "The preparation usually contains a therapeutically effective quantity, suitably about 0.05 to about 5% by weight, preferably about 0.1 to about 2% by weight, of motilin.", "data": [{"substance": "motilin", "values": [{"measurement": "mortality", "value": "did not die"}]}]}
